US20210238197A1, “NOVEL OXOQUINOLIZINE COMPOUNDS FOR THE TREATMENT AND PROPHYLAXIS OF BACTERIAL INFECTION” (Hoffmann-La Roche Inc., priority 2018, published 2021)
≈ marks a conversion by molar mass, not a printed value. Read-outs that look alike come from different tables or passages of the source.

Experiments:
[1] = tested on: K. pneumoniae (ATCC10031); experiment: 50% growth inhibitory concentration (IC50) determination assay, K. pneumoniae; type: cell-based; conditions: Iso-Sensitest broth, growth by OD 600 nm over 16 h, <0.098 = detection limit
Procedure: (§1) The in vitro antimicrobial activity of the compounds against S. aureus (ATCC29213), K. pneumoniae (ATCC10031), and A. baumannii (ATCC17978), was determined according to the following procedure: The assay used a 10-points Iso-Sensitest broth medium to measure quantitatively the in vitro activity of the compounds against S. aureus ATCC29213, K. pneumoniae ATCC 10031, and A. baumannii ATCC17978. Stock compounds in DMSO were serially two-fold diluted (range from 50 to 0.097 μM final concentration) in 384 wells microtiter plates and inoculated with 49 μL the bacterial suspension in Iso-Sensitest broth medium to have a final cell concentration of ˜5×10^5 CFU/mL in a final volume/well of 50 μL/well. Microtiter plates were incubated at 35±2° C. Bacterial cell growth was determined with the measurement of optical density at λ=600 nm each 20 minutes over a time course of 16 h.

S. aureus (ATCC29213) = experiment: 50% growth inhibitory concentration (IC50) determination assay, S. aureus; type: cell-based; conditions: Iso-Sensitest broth, growth by OD 600 nm over 16 h, <0.098 = detection limit
Procedure: as §1

A. baumannii (ATCC17978) = experiment: 50% growth inhibitory concentration (IC50) determination assay, A. baumannii; type: cell-based; conditions: Iso-Sensitest broth, growth by OD 600 nm over 16 h, <0.098 = detection limit
Procedure: as §1

[2] = tested on: multiple species and strains; experiment: microbe, parasite or virus in culture; set-up: MIC S9 / MIC S7 / MIC S11 / MIC S8 / MIC S10: unit not given beside the values; conditions: for MIC S11: E. coli ATCC 25922; for MIC S9: E. coli ATCC 35218; for MIC S7: P. aeruginosa ATCC 27853
Procedure: The MIC of antibacterial compounds against multiple species and strains was determined using the broth microdilution method according to M07-A10 Clinical and Laboratory Standards Institute (CLSI) guidelines (CLSI (2015) Methods for dilution antimicrobial susceptibility tests for bacteria that grow aerobically; Approved Standard, Tenth Edition. CLSI Document M7-A10 (ISBN 1-56238-987-4). Wayne, Pa.: Clinical and Laboratory Standards Institute, 19087, USA.). In short, bacterial strain preparation was performed on D1 and D2. […] 5-10 well-isolated colonies of similar morphology were selected and re-streaked onto fresh agar plates using sterile loops and incubated for 20-24 hr at 35±2° C. Bacterial strains were subcultured two times to ensure fresh inoculums for MIC screening. […] Alternatively, 1-2 colonies were transferred into 500 μL of saline and OD600 was adjusted to ˜0.1 using an OD meter. Bacterial inoculum was diluted by 1:280 for Gram-positive strains and 1:400 for Gram-negative strains into corresponding medium broth (CAMHB, CAMHB+3% lysed horse blood, HTM) (e.g. 35.6 μL of inoculum into 10 mL of CAMHB or 25 μL of inoculum into 10 mL of CAMHB). For compound plate, the compound stock solutions were prepared in 100% DMSO on the day of MIC screening and used immediately. Compound stock concentration=[(highest testing concentration)×100 μL/2 μL] (e.g. if the required highest testing concentration is 64 μg/mL in assay plates, stock concentration=64 μg/mL×100 μL/2 μL=3.2 mg/mL). […] 1 μL of each well was transferred in a new MTP, which served as the test plate by subsequent inoculation. The bacterial suspension prepared above is dispensed at 98 μL/well within 15 minutes after preparation. Negative controls (lack of bacterial cells) and growth control wells (lack of compound) were included in all plates. MTPs were incubated for 18-24 hours at 35±2° C. in ambient air. The MIC was recorded and CFUs were calculated on Day 4. The assay plate was placed on the top of MIC reader, and the magnification mirror was adjusted to read each wells, recording growth status as raw data. Photo images of each assay plates were recorded using Q Count 530 (Spiral Biotech). The MIC value of each compound, expressed as μg/mL, was determined as the lowest concentration required for complete growth inhibition (no visible growth).

[3] = Cytotoxicity assay (HepG2, CellTiter-Blue); type: cell-based; conditions: human; HepG2 cells, 3 days treatment; >100 = detection limit
Procedure: The cytotoxicity of compounds of present invention was assessed by HepG2 assay. HepG2 cells (ATCC RB-8065™) were seeded into 96-well plates (1.2×10^4 cells per well) and treated with compounds for 3 days, cell viability was measured at day 3 post compound treatment using the CellTiter-Blue® Cell Viability Assay (Promega, Cat. No. G8082). […], of Cell titer blue buffer were added to each well of the cells, which were incubated for 3 hours at 37° C., and the fluorescence value was measured by a plate reader (Molecular Device SpectraMax M2). The CC50 value of each compound is plotted with GraphPad Prism using four parameter logistic equation.

[4] = Klebsiella pneumoniae, ATCC10031
[5] = Staphylococcus aureus, ATCC29213
[6] = Acinetobacter baumannii, ATCC17978
[7] = Acinetobacter baumannii, ATCC19606, read-out: MIC S1, A. baumannii ATCC 19606
[8] = Acinetobacter baumannii, ATCC51432, read-out: MIC S2, A. baumannii ATCC 51432
[9] = Acinetobacter baumannii, ATCCBAA747, read-out: MIC S3, A. baumannii ATCC BAA-747
[10] = Escherichia coli, ATCCBAA2340, read-out: MIC S10, E. coli ATCC BAA-2340
[11] = Klebsiella pneumoniae, ATCC10031, read-out: MIC S4, K. pneumoniae ATCC 10031
[12] = Klebsiella pneumoniae, ATCC700603, read-out: MIC S5, K. pneumoniae ATCC 700603
[13] = Klebsiella pneumoniae, ATCCBAA2146, read-out: MIC S6, K. pneumoniae ATCC BAA-2146
[14] = Pseudomonas aeruginosa, ATCCBAA2113, read-out: MIC S8, P. aeruginosa ATCC BAA-2113
[15] = Escherichia coli, ATCC25922, read-out: MIC S11, E. coli ATCC 25922
[16] = Pseudomonas aeruginosa, ATCC27853, read-out: MIC S7, P. aeruginosa ATCC 27853

| Compound | MIC S9 [2] | IC50 [1, 4] | IC50 (S. aureus (ATCC29213); [5]) | IC50 (A. baumannii (ATCC17978); [6]) | MIC [2, 7] | MIC [2, 8] | MIC [2, 9] | MIC [2, 10] | MIC [2, 11] | MIC [2, 12] | MIC [2, 13] | MIC [2, 14] | MIC [2, 15] | MIC [2, 16] | further results |
| --- | --- | --- | --- | --- | --- | --- | --- | --- | --- | --- | --- | --- | --- | --- | --- |
| CNc1cc(F)c(C#N)c2c1[nH]c1ncc(-c3ccc4ccc(C(=O)O)c(=O)n4c3)c(N3C[C@H]4CCN(C)[C@H]4C3)c12 (single isomer, unassigned) [Example 1.16, 7-[4-[cis-1-methyl-2,3,3a,4,6,6a-hexahydropyrrolo[3,4-b]pyrrol-5-yl]-5-cyano-6-fluoro-8-(methylamino)-9H-pyrido[2,3-b]indol-3-yl]-4-oxo-quinolizine-3-carboxylic acid] | 0.216 | – | – | – | – | – | – | – | – | – | – | – | – | – | IC50 [1]: < 0.098 µM; IC50 (S. aureus (ATCC29213)): < 0.098 µM; IC50 (A. baumannii (ATCC17978)): < 0.098 µM; MIC S1 ([2]; A. baumannii ATCC 19606): 0.431; MIC S2 ([2]; A. baumannii ATCC 51432): 0.216; MIC S3 ([2]; A. baumannii ATCC BAA-747): 0.216; MIC S11 [2]: 0.040; MIC S10 ([2]; E. coli ATCC BAA-2340): 0.216; MIC S4 ([2]; K. pneumoniae ATCC 10031): 0.027; MIC S5 ([2]; K. pneumoniae ATCC 700603): 1.724; MIC S6 ([2]; K. pneumoniae ATCC BAA-2146): 1.724; MIC S7 [2]: 0.431; MIC S8 ([2]; P. aeruginosa ATCC BAA-2113): 3.447 |
| CNc1cc(F)c(C#N)c2c1[nH]c1ncc(-c3ccc4ccc(C(=O)O)c(=O)n4c3)c(N3C[C@H]4CCN(C)[C@H]4C3)c12 (single isomer, unassigned) [Example 1.11, 7-[5-cyano-6-fluoro-4-(cis-1-methyl-2,3,3a,4,6,6a-hexahydropyrrolo[3,4-b]pyrrol-5-yl)-8-(methylamino)-9H-pyrido[2,3-b]indol-3-yl]-4-oxo-quinolizine-3-carboxylic acid] | 0.260 | < 0.098 µM | < 0.098 µM | < 0.098 µM | 0.26 mg/L (≈ 0.471 µM) | 0.26 mg/L (≈ 0.471 µM) | 0.26 mg/L (≈ 0.471 µM) | 0.26 mg/L (≈ 0.471 µM) | 0.033 mg/L (≈ 0.0598 µM) | 1.04 mg/L (≈ 1.88 µM) | 1.04 mg/L (≈ 1.88 µM) | 2.08 mg/L (≈ 3.77 µM) | – | – | MIC S11 [2]: 0.097; MIC S7 [2]: 1.038 |
| CNc1cc(F)c(Cl)c2c1[nH]c1ncc(-c3ccc4ccc(C(=O)O)c(=O)n4c3)c(N3CC[C@H]4CN(C)C[C@H]43)c12 [Example 1.07, 7-(5-chloro-6-fluoro-8-(methylamino)-4-((3aS,6aS)-5-methyl-2,3,3a,4,6,6a-hexahydropyrrolo[2,3-c]pyrrol-1-yl)-9H-pyrido[2,3-b]indol-3-yl)-4-oxo-4H-quinolizine-3-carboxylic acid] | 0.132 | < 0.098 µM | < 0.098 µM | < 0.098 µM | 0.066 mg/L (≈ 0.118 µM) | 0.066 mg/L (≈ 0.118 µM) | 0.263 mg/L (≈ 0.469 µM) | 0.132 mg/L (≈ 0.235 µM) | 0.033 mg/L (≈ 0.0588 µM) | 1.05 mg/L (≈ 1.88 µM) | 0.527 mg/L (≈ 0.939 µM) | 8.44 mg/L (≈ 15 µM) | 0.049 mg/L (≈ 0.0873 µM) | 0.527 mg/L (≈ 0.939 µM) | – |
| CNc1cc(F)c(F)c2c1[nH]c1ncc(-c3ccc4ccc(C(=O)O)c(=O)n4c3)c(N3CC[C@H]4CCN(C)[C@H]4C3)c12 [Example 3.04A, 7-[4-[(3aR,7aR)-1-methyl-3,3a,4,5,7,7a-hexahydro-2H-pyrrolo[2,3-c]pyridin-6-yl]-5,6-difluoro-8-(methylamino)-9H-pyrido[2,3-b]indol-3-yl]-4-oxo-quinolizine-3-carboxylic acid] | 0.218 | < 0.098 µM | < 0.098 µM | < 0.098 µM | 0.218 mg/L (≈ 0.39 µM) | 0.218 mg/L (≈ 0.39 µM) | 0.218 mg/L (≈ 0.39 µM) | 0.218 mg/L (≈ 0.39 µM) | 0.027 mg/L (≈ 0.0483 µM) | 1.75 mg/L (≈ 3.13 µM) | 1.75 mg/L (≈ 3.13 µM) | 3.49 mg/L (≈ 6.25 µM) | 0.082 mg/L (≈ 0.147 µM) | 0.436 mg/L (≈ 0.781 µM) | – |
| CNc1cc(F)c(F)c2c1[nH]c1ncc(-c3ccc4ccc(C(=O)O)c(=O)n4c3)c(N3CC[C@@]4(C[C@@H]4N)C3)c12 (single isomer, unassigned) [Example 4.01A] | 0.297 | < 0.098 µM | < 0.098 µM | < 0.098 µM | 0.445 mg/L (≈ 0.839 µM) | 0.445 mg/L (≈ 0.839 µM) | 0.592 mg/L (≈ 1.12 µM) | 0.297 mg/L (≈ 0.56 µM) | 0.074 mg/L (≈ 0.139 µM) | 2.37 mg/L (≈ 4.47 µM) | 2.37 mg/L (≈ 4.47 µM) | 1.19 mg/L (≈ 2.24 µM) | 0.111 mg/L (≈ 0.209 µM) | 0.592 mg/L (≈ 1.12 µM) | – |
| CNc1cc(F)c(F)c2c1[nH]c1ncc(-c3ccc4ccc(C(=O)O)c(=O)n4c3)c(N3CC4[C@H](CC[C@H]4N(C)C)C3)c12 (stereo partly drawn) [Example 1.05, 7-[4-[cis-(4R)-4-(dimethylamino)-3,3a,4,5,6,6a-hexahydro-1H-cyclopenta[c]pyrrol-2-yl]-5,6-difluoro-8-(methylamino)-9H-pyrido[2,3-b]indol-3-yl]-4-oxo-quinolizine-3-carboxylic acid] | – | – | – | – | – | – | – | – | – | – | – | – | – | – | CC50 at 3 days [3]: 15.5 µM |
| CNc1cc(F)c(F)c2c1[nH]c1ncc(-c3ccc4ccc(C(=O)O)c(=O)n4c3)c(N(C)C)c12 [Example 1.01, 7-(4-(Dimethylamino)-5,6-difluoro-8-(methylamino)-9H-pyrido[2,3-b]indol-3-yl)-4-oxo-411-quinolizine-3-carboxylic acid] | 0.113 | < 0.098 µM | < 0.098 µM | < 0.098 µM | 0.057 mg/L (≈ 0.123 µM) | 0.45 mg/L (≈ 0.971 µM) | 0.225 mg/L (≈ 0.485 µM) | 0.225 mg/L (≈ 0.485 µM) | 0.057 mg/L (≈ 0.123 µM) | 0.45 mg/L (≈ 0.971 µM) | 1.8 mg/L (≈ 3.89 µM) | 0.901 mg/L (≈ 1.94 µM) | 0.169 mg/L (≈ 0.365 µM) | 0.901 mg/L (≈ 1.94 µM) | – |
| CNc1cc(F)c(F)c2c1[nH]c1ncc(-c3ccc4c(C)cc(C(=O)O)c(=O)n4c3)c(N3CC[C@H]4CN(C)C[C@H]43)c12 (relative stereo) [Example 2.04, 7-[4-[cis-5-methyl-2,3,3a,4,6,6a-hexahydropyrrolo[2,3-c]pyrrol-1-yl]-5,6-difluoro-8-(methylamino)-9H-pyrido[2,3-b]indol-3-yl]-1-methyl-4-oxo-quinolizine-3-carboxylic acid] | 0.614 | < 0.098 µM | < 0.098 µM | < 0.098 µM | 0.461 mg/L (≈ 0.825 µM) | 0.614 mg/L (≈ 1.1 µM) | 0.922 mg/L (≈ 1.65 µM) | 0.922 mg/L (≈ 1.65 µM) | 0.077 mg/L (≈ 0.138 µM) | 4.92 mg/L (≈ 8.8 µM) | 4.92 mg/L (≈ 8.8 µM) | 3.69 mg/L (≈ 6.6 µM) | 0.173 mg/L (≈ 0.31 µM) | 2.46 mg/L (≈ 4.4 µM) | – |
